Test results published in US10195255B2, “GLP-1 derivatives and uses thereof” (Novo Nordisk A/S, priority 2013, dated 2019).
Where a SMILES comes first, the peptide text is derived from it. [ ]: non-standard residue; d: D form. The star is where a group is joined. X3 = O=C(O)CCCCCCCCCCCCCCCCCCC(=O)NCC1CCC(C(=O)N[C@@H](CCC(=O)NCCOCCOCC(=O)NCCOCCOCC(=O)NCCCC[C@H](NC(=O)COCCOCCNC(=O)COCCOCCNC(=O)CC[C@H](NC(=O)C2CCC(CNC(=O)CCCCCCCCCCCCCCCCCCC(=O)O)CC2)C(=O)O)C(=O)*)C(=O)O)CC1; X2 = O=C(O)CCCCCCCCCCCCCCCCCCC(=O)N1CCC(C(=O)N[C@@H](CCC(=O)NCCOCCOCC(=O)NCCOCCOCC(=O)NCCCC[C@H](NC(=O)COCCOCCNC(=O)COCCOCCNC(=O)CC[C@H](NC(=O)C2CCN(C(=O)CCCCCCCCCCCCCCCCCCC(=O)O)CC2)C(=O)O)C(=O)*)C(=O)O)CC1; X1 = O=C(O)CCCCCCCCCCCCCCCCCCC(=O)N[C@@H](CCC(=O)NCCOCCOCC(=O)NCCOCCOCC(=O)NCCCC[C@H](NC(=O)COCCOCCNC(=O)COCCOCCNC(=O)CC[C@H](NC(=O)CCCCCCCCCCCCCCCCCCC(=O)O)C(=O)O)C(=O)*)C(=O)O; Aib = CC(C)(N)C(=O)O

Key:
[1] = Pharmacokinetic study in minipigs (i.v.)
Procedure: (§1) This is done in a pharmacokinetic (PK) study, where the terminal half-life of the derivative in question is determined. By terminal half-life is meant the time it takes to halve a certain plasma concentration in the terminal elimination phase.
(§2) Male Göttingen minipigs were obtained from Ellegaard Göttingen Minipigs (Dalmose, Denmark) approximately 7-14 months of age and weighing approximately 16-35 kg were used in the studies. The minipigs were housed either individually (pigs with permanent catheters) or in a group and fed restrictedly once or twice daily with SDS minipig diet (Special Diets Services, Essex, UK).
(§3) After at least 2 weeks of acclimatisation two permanent central venous catheters were implanted in vena cava caudalis or cranialis in each animal. The animals were allowed 1 week recovery after the surgery, and were then used for repeated pharmacokinetic studies with a suitable wash-out period between successive GLP-1 derivative dosings.
(§4) Blood samples (for example 0.8 ml) were collected in EDTA buffer (8 mM) and then centrifuged at 4° C. and 1942 G for 10 minutes.
(§5) Plasma was pipetted into Micronic tubes on dry ice, and kept at −20° C. until analysed for plasma concentration of the respective GLP-1 compound using LOCI. Individual plasma concentration-time profiles were analyzed by a non-compartmental pharmacokinetic method in Phoenix v. 6.2 (Pharsight Inc., Mountain View, Calif., USA), or other relevant software for PK analysis, and the resulting terminal half-lives (harmonic mean) determined.

in vivo = conditions: male, Göttingen, minipig, iv
Procedure: as §1, §2, §3, §4, §5

half-life (in vivo) [h]	Compound	further results
	CC[C@H](C)[C@H](NC(=O)[C@H](Cc1ccccc1)NC(=O)[C@H](CCC(=O)O)NC(=O)[C@H](CCCNC(=N)N)NC(=O)[C@H](C)NC(=O)[C@H](C)NC(=O)[C@H](CCC(N)=O)NC(=O)[C@H](CCC(=O)O)NC(=O)[C@H](CCC(=O)O)NC(=O)[C@H](CC(C)C)NC(=O)[C@H](Cc1ccc(O)cc1)NC(=O)[C@H](CO)NC(=O)[C@H](CO)NC(=O)[C@@H](NC(=O)[C@H](CC(=O)O)NC(=O)[C@H](CO)NC(=O)[C@@H](NC(=O)[C@H](Cc1ccccc1)NC(=O)[C@@H](NC(=O)CNC(=O)[C@H](CCC(=O)O)NC(=O)C(C)(C)NC(=O)[C@@H](N)Cc1c[nH]cn1)[C@@H](C)O)[C@@H](C)O)C(C)C)C(=O)N[C@@H](C)C(=O)N[C@@H](Cc1c[nH]c2ccccc12)C(=O)N[C@@H](CC(C)C)C(=O)N[C@H](C(=O)N[C@@H](CCCNC(=N)N)C(=O)NCC(=O)N[C@@H](CCCNC(=N)N)C(=O)NCC(=O)N[C@@H](CCCCNC(=O)[C@H](CCCCNC(=O)COCCOCCNC(=O)COCCOCCNC(=O)CC[C@H](NC(=O)C1CCN(C(=O)CCCCCCCCCCCCCCCCCCC(=O)O)CC1)C(=O)O)NC(=O)COCCOCCNC(=O)COCCOCCNC(=O)CC[C@H](NC(=O)C1CCN(C(=O)CCCCCCCCCCCCCCCCCCC(=O)O)CC1)C(=O)O)C(=O)O)C(C)C [Example 18, N{Alpha}([Aib8,Glu22,Arg26,Arg34]-GLP-1-(7-37)-peptidyl)-N{Epsilon}[(2S)-2,6-bis[[2-[2-[2-[[2-[2-[2-[[(4S)-4-carboxy-4-[[1-(19-carboxynonadecanoyl)piperidine-4-carbonyl]amino]butanoyl]amino]ethoxy]ethoxy]acetyl]amino]ethoxy]ethoxy]acetyl]amino]hexanoyl]Lys] (H-H[Aib]EGTFTSDVSSYLEEQAAREFIAWLVRGRGK(X2)-OH)	half-life ([1]; male, Göttingen, minipig, plasma, iv, 15 nmol/kg): 140 h
131	CC[C@H](C)[C@H](NC(=O)[C@H](Cc1ccccc1)NC(=O)[C@H](CCC(=O)O)NC(=O)[C@H](CCCNC(=N)N)NC(=O)[C@H](C)NC(=O)[C@H](C)NC(=O)[C@H](CCC(N)=O)NC(=O)[C@H](CCC(=O)O)NC(=O)[C@H](CCC(=O)O)NC(=O)[C@H](CC(C)C)NC(=O)[C@H](Cc1ccc(O)cc1)NC(=O)[C@H](CO)NC(=O)[C@H](CO)NC(=O)[C@@H](NC(=O)[C@H](CC(=O)O)NC(=O)[C@H](CO)NC(=O)[C@@H](NC(=O)[C@H](Cc1ccccc1)NC(=O)[C@@H](NC(=O)CNC(=O)[C@H](CCC(=O)O)NC(=O)C(C)(C)NC(=O)[C@@H](N)Cc1c[nH]cn1)[C@@H](C)O)[C@@H](C)O)C(C)C)C(=O)N[C@@H](C)C(=O)N[C@@H](Cc1c[nH]c2ccccc12)C(=O)N[C@@H](CC(C)C)C(=O)N[C@H](C(=O)N[C@@H](CCCNC(=N)N)C(=O)NCC(=O)N[C@@H](CCCNC(=N)N)C(=O)NCC(=O)N[C@@H](CCCCNC(=O)[C@H](CCCCNC(=O)COCCOCCNC(=O)COCCOCCNC(=O)CC[C@H](NC(=O)CCCCCCCCCCCCCCCCCCC(=O)O)C(=O)O)NC(=O)COCCOCCNC(=O)COCCOCCNC(=O)CC[C@H](NC(=O)CCCCCCCCCCCCCCCCCCC(=O)O)C(=O)O)C(=O)O)C(C)C [Example 9, N{Alpha}([Aib8,Glu22,Arg26,Arg34]-GLP-1-(7-37)-peptidyl)-N{Epsilon}[(2S)-2,6-bis[[2-[2-[2-[[2-[2-[2-[[(4S)-4-carboxy-4-(19-carboxynonadecanoylamino)butanoyl]amino]ethoxy]ethoxy]acetyl]amino]ethoxy]ethoxy]acetyl]amino]hexanoyl]Lys] (H-H[Aib]EGTFTSDVSSYLEEQAAREFIAWLVRGRGK(X1)-OH; N-terminus and C-terminus assumed)	
128	CC[C@H](C)[C@H](NC(=O)[C@H](Cc1ccccc1)NC(=O)[C@H](CCC(=O)O)NC(=O)[C@H](CCCNC(=N)N)NC(=O)[C@H](C)NC(=O)[C@H](C)NC(=O)[C@H](CCC(N)=O)NC(=O)[C@H](CCC(=O)O)NC(=O)[C@H](CCC(=O)O)NC(=O)[C@H](CC(C)C)NC(=O)[C@H](Cc1ccc(O)cc1)NC(=O)[C@H](CO)NC(=O)[C@H](CO)NC(=O)[C@@H](NC(=O)[C@H](CC(=O)O)NC(=O)[C@H](CO)NC(=O)[C@@H](NC(=O)[C@H](Cc1ccccc1)NC(=O)[C@@H](NC(=O)CNC(=O)[C@H](CCC(=O)O)NC(=O)C(C)(C)NC(=O)[C@@H](N)Cc1c[nH]cn1)[C@@H](C)O)[C@@H](C)O)C(C)C)C(=O)N[C@@H](C)C(=O)N[C@@H](Cc1c[nH]c2ccccc12)C(=O)N[C@@H](CC(C)C)C(=O)N[C@H](C(=O)N[C@@H](CCCNC(=N)N)C(=O)NCC(=O)N[C@@H](CCCNC(=N)N)C(=O)N[C@@H](CCCCNC(=O)[C@H](CCCCNC(=O)COCCOCCNC(=O)COCCOCCNC(=O)CC[C@H](NC(=O)CCCCCCCCCCCCCCCCCCC(=O)O)C(=O)O)NC(=O)COCCOCCNC(=O)COCCOCCNC(=O)CC[C@H](NC(=O)CCCCCCCCCCCCCCCCCCC(=O)O)C(=O)O)C(=O)O)C(C)C [Example 6, N{Epsilon-37}-[(2S)-2,6-bis[[2-[2-[2-[[2-[2-[2-[[(4S)-4-carboxy-4-(19-carboxynonadecanoylamino)butanoyl]amino]ethoxy]ethoxy]acetyl]amino]ethoxy]ethoxy]acetyl]amino]hexanoyl]-[Aib8,Glu22,Arg26,Arg34,Lys37]-GLP-1-(7-37)-peptide]	
	CC[C@H](C)[C@H](NC(=O)[C@H](Cc1ccccc1)NC(=O)[C@H](CCC(=O)O)NC(=O)[C@H](CCCNC(=N)N)NC(=O)[C@H](C)NC(=O)[C@H](C)NC(=O)[C@H](CCC(N)=O)NC(=O)[C@H](CCC(=O)O)NC(=O)[C@H](CCC(=O)O)NC(=O)[C@H](CC(C)C)NC(=O)[C@H](Cc1ccc(O)cc1)NC(=O)[C@H](CO)NC(=O)[C@H](CO)NC(=O)[C@@H](NC(=O)[C@H](CC(=O)O)NC(=O)[C@H](CO)NC(=O)[C@@H](NC(=O)[C@H](Cc1ccccc1)NC(=O)[C@@H](NC(=O)CNC(=O)[C@H](CCC(=O)O)NC(=O)C(C)(C)NC(=O)[C@@H](N)Cc1c[nH]cn1)[C@@H](C)O)[C@@H](C)O)C(C)C)C(=O)N[C@@H](C)C(=O)N[C@@H](Cc1c[nH]c2ccccc12)C(=O)N[C@@H](CC(C)C)C(=O)N[C@H](C(=O)N[C@@H](CCCNC(=N)N)C(=O)NCC(=O)N[C@@H](CCCNC(=N)N)C(=O)NCC(=O)NCC(=O)N[C@@H](CO)C(=O)N[C@@H](CCCCNC(=O)[C@H](CCCCNC(=O)COCCOCCNC(=O)COCCOCCNC(=O)CC[C@H](NC(=O)C1CCC(CNC(=O)CCCCCCCCCCCCCCCCCCC(=O)O)CC1)C(=O)O)NC(=O)COCCOCCNC(=O)COCCOCCNC(=O)CC[C@H](NC(=O)C1CCC(CNC(=O)CCCCCCCCCCCCCCCCCCC(=O)O)CC1)C(=O)O)C(=O)O)C(C)C (stereo partly drawn) [Example 3, [Aib8,Glu22,Arg26,Arg34]-GLP-1-(7-37)-peptidyl-Gly-Ser-N{Epsilon}[(2S)-2,6-bis[[2-[2-[2-[[2-[2-[2-[[(4S)-4-carboxy-4-[[4-[(19-carboxynonadecanoylamino)methyl]cyclohexanecarbonyl]amino]butanoyl]amino]ethoxy]ethoxy]acetyl]amino]ethoxy]ethoxy]acetyl]amino]hexanoyl]Lys] (H-H[Aib]EGTFTSDVSSYLEEQAAREFIAWLVRGRGGSK(X3)-OH)	Terminal half-live ([1]; minipigs, i.v., 2 nmol/kg, harmonic mean): 122 h
